Test results as given in patent US6572751B1, “Method and apparatus for continuous flow isoelectric focusing for purifying biological substances” (priority 1997, dated 2003).

Legend:
[1] = tested on: E. coli and two Streptococcus Spp.; details: disk tests
[2] = Lysozyme activity of fractions; format: biochemical
Experimental: For this Exarnple, egg white was collected from 2,000 eggs (about 50 L) and diluted in ice-cold distilled water, up to 150 L. All manipulations were done at 4° C. The solution was filtered and introduced into a 4 L apparatus according to the present invention, and having three working outflow ports (plus two electrode outflows). The contifocuser was initially filled with distilled water. The flow rate was adjusted at 75 ml/min, a DC 1,000 Volts was established, and the initial power of the system was 1.5 W. After adding the crude egg white suspension, the power raised to 10.5 W. The contifocusing lasted 34 hrs. […] This suspension was gradually introduced into a 1 L contifocuser with three working and two electrode outflow ports. The flow rate with distilled water was adjusted at 10 ml/min, 1,000 V/DC. […] The contifocusing lasted 3 days. The outflow nearest to the cathode, at pH 10.5, was collected. […] This fraction of 12 L was thereafter introduced in four fractions onto 200×1500 mm chromatographic columns packed by a molecular sieving gel, Spheron P-200, and 25 ml fractions were collected.

Compound	inhibition [1]	protein-splitting activity ([2]; first peak after Spheron P-200 gel chromatography)	lysozyme concentration (activity) ([2]; outflow at pH 10.5 after first contifocusing run)
CN(C)[C@@H]1C(=O)C(C(N)=O)=C(O)[C@@]2(O)C(=O)C3=C(O)c4c(O)cccc4[C@@](C)(O)[C@H]3C[C@@H]12 [original material, Tetracyclin]	85%	–	–
lysozyme: enzyme isolated from egg white by contifocusing	–	20,000 U/g	200 U/ml
